This is an account of results in patent US11098082B2, “Antigenic peptides and uses thereof for diagnosing and treating autism” (The Regents of the University of California, priority 2015, dated 2021).

Common to all, as to format: binding, human
One test concerns maternal autoantibodies. The test can be described thus: validation peptide microarray incubated with maternal plasma samples (ASD vs TD mothers). To be noted: for Number (%) Positive In ASD / Number Positive In ASD (n = 46): plasma of mothers of children with ASD, n = 46; for Number Positive In ASD (n = 46): peptide called positive (reactive) per sample; for Number (%) Positive In TD / Number Positive In TD (n = 21): plasma of mothers of typically developing children, n = 21; for binding by autoantibodies, ASD samples compared with TD samples: in words.

For test [1], the system named is autoantibodies present in a maternal sample. The test can be described thus: STIP1 peptide ELISA with maternal plasma samples. Conditions: plasma 1:400; for Final (absorbance, average minus blank): 450 nm; for Average (absorbance): 450 nm with 490 nm reference, duplicate. From the text:
The peptides of Table 2 were synthesized with a linker and biotinylated. In particular, each biotinylated peptide was biotin-SGSS-peptide-DKP with SGSS (SEQ ID NO: 121) as the spacer and a diketopiperazine (DKP) group at the C-terminus of the peptide. Pierce® NeutrAvidin® protein coated microwell plates (Thermo Scientific) were washed with PBST and excess buffer was removed from the wells. The biotinylated peptides were reconstituted in pure solvent (e.g., DMSO or DMF) or a solvent/water mixture. The reconstituted peptide was diluted […] in ultra pure water to a final concentration of 5 μg/ml. 100 μl of the diluted biotinylated peptide was dispensed into the wells and incubated for 1 hour at room temperature or overnight at 4° C. on a slow rocker. Reference wells were left uncoated but filled with buffer. Nonspecific binding sites were blocked by incubation with 200 μl of a 5% Pierce® Superblock™ PBS solution for 2 hours at room temperature. Subsequently, the plates were washed six times with PBST using an automated plate washer.
The following method adapted from Sanchez et al. (Cancer Chemother. Pharmacol., 66: 919-925 (2010)) was used to detect maternal antibodies against one or more of the peptides of the ELISA-based assay described above: Maternal plasma samples were obtained including samples predetermined to be reactive to the full-length antigens of the peptides in the assay. The test samples were diluted in sample diluent (e.g., 2.5% Pierce® Superblock™ in PBST) and 100 μl of each sample was added to the wells of the assay plate. All samples were analyzed in duplicate in both peptide-coated and uncoated wells. The diluted samples were incubated for 1 hour at room temperature. The plates were then washed six times with PBST. The labeled secondary antibody solution (e.g., horseradish peroxidase-conjugated goat anti-human IgG, Invitrogen) was added to the wells and incubated for 30 minutes at room temperature. The plates were again washed eight times with PBST. The plates were then washed with PBS without Tween twice. The BD Opt EIA™ substrate (BD Biosciences Pharmingen, San Diego, Calif.) was added to the wells and incubated at room temperature for 10 minutes. The STOP solution (2N H2SO4) was added and the plate was read at 450 nm using a reference filter at 490 nm.
In particular, four maternal plasma samples were tested for their reactivity to a STIP1 peptide having the amino acid sequence PPPPPPKKETKPEPM (SEQ ID NO:22) using the following peptide ELISA protocol: • 1. Bring all reagents to room temperature. • 2. Peptides were diluted in ultra pure water from peptide stock (1 mg/mL) to a final concentration of 5 μg/mL. • 3. Add 100 μl of each peptide to corresponding wells on 96-well NeutrAvidin coated plate. • 4. Incubate plate for 1 hour at room temperature. • 5. Wash plate six times with PBS with 0.05% Tween. • 6. Add 200 μl of 5% Superblock to each well and incubated for 2 hours at room temperature. • 7. Wash plate six times with PBS with 0.05% Tween. • 8. Dilute maternal plasma samples 1:400 in sample buffer (2.5% Superblock in PBS with 0.05% Tween). • 9. Add 100 μl of diluted plasma samples to wells and incubate for 1 hour at room temperature. • 10. Wash plate six times with PBS with 0.05% Tween. • 11. Dilute Goat Anti-Human antibody 1:2,500 in PBS with 0.05% Tween. • 12. Add 100 μl of diluted Goat Anti-Human antibody to wells and incubate for 30 minutes at room temperature. • 13. Wash plate eight times with PBS with 0.05% Tween and two times with PBS Neat. • 14. Add 100 μl of BD Opt EIA substrate to each well. • 15. Incubate plate in the dark for 10 minutes at room temperature. • 16. Add 50 μl of H2SO4 to each well to stop chemical reaction. • 17. Read plate on reduced setting on spectrophotometer at 450 nm with 490 nm reference.
The samples were run in duplicate and the absorbance values were averaged. […]
A general note: ELISA stands for enzyme-linked immunosorbent assay.

Test [2] shares this test system. The test can be described thus: ELISA with the full-length STIP1 polypeptide. Conditions: Sample No. 1190.
Setting [3] is: Sample No. 99 (Medium Reactivity).
[4] abbreviates: Sample No. 1190 (Highly Reactive).
Setting [5] is: Sample No. 1887 (Low Reactivity).

With “MDLNDTFPEYKETIE (MDLNDTFPEYKETTE) [SEQ ID NO: 27]”, in the test with maternal autoantibodies, the “Number (%) Positive In ASD” value came out at 17%, the “Number Positive In ASD (n = 46)” value came to 8, the “Number (%) Positive In TD” value worked out at 5% and the “Number Positive In TD (n = 21)” value is on record as 1.

In the case of PPPPPPKKETKPEPM [SEQ ID NO: 22], the “Final (absorbance, average minus blank)” value in test [1] (setting [3]) is 0.483; in test [1] (Sample No. 142 (Negative)), 0.093; in test [1] (setting [4]) it was 2.045; in test [1] (setting [5]), 0.129. The “Average (absorbance)” value in test [1] (setting [3]) was found to be 1.482; in test [1] (Sample No. 142 (Negative)), 1.295; in test [1] (setting [4]), 2.442; in test [1] (setting [5]), 2.101.

With DCIIIVVSNPVDILT [SEQ ID NO: 12], in the test with maternal autoantibodies, the “binding by autoantibodies, ASD samples compared with TD samples” value (“binding … compared with TD samples” for short) is recorded as “only bound by autoantibodies when the microarrays were incubated with plasma samples obtained from mothers whose children had a diagnosis of ASD”; the “Number (%) Positive In ASD” value amounted to 11%; the “Number Positive In ASD (n = 46)” value came to 5; the “Number (%) Positive In TD” value is reported as 0%. For the same substance, in the test with maternal autoantibodies, the “Number Positive In TD (n = 21)” value came to 0.

As for TPKIVADKDYSVTAN [SEQ ID NO: 11], in the test on maternal autoantibodies, the “binding … compared with TD samples” value is “only bound by autoantibodies when the microarrays were incubated with plasma samples obtained from mothers whose children had a diagnosis of ASD”; the “Number (%) Positive In ASD” value was 2%; the “Number Positive In ASD (n = 46)” value was 1; the “Number (%) Positive In TD” value stood at 0%. The “Number Positive In TD (n = 21)” value in the test with maternal autoantibodies was 0.

As to ETVEFDVVEGEKGAE [SEQ ID NO: 32], in the test with maternal autoantibodies, the “Number (%) Positive In ASD” value was 11%, the “Number Positive In ASD (n = 46)” value is 5, the “Number (%) Positive In TD” value is listed as 5% and the “Number Positive In TD (n = 21)” value is 1.

Turning to PAAPPAAPALSAADT [SEQ ID NO: 28], in the test on maternal autoantibodies, the “Number (%) Positive In ASD” value amounted to 41%, the “Number Positive In ASD (n = 46)” value is 19, the “Number (%) Positive In TD” value turned out to be 29% and the “Number Positive In TD (n = 21)” value worked out at 6.

Turning to MAERKQSGKAAEDEE [SEQ ID NO: 45], in the test on maternal autoantibodies, the “Number (%) Positive In ASD” value is on record as 22%, the “Number Positive In ASD (n = 46)” value is on record as 10, the “Number (%) Positive In TD” value came out at 5% and the “Number Positive In TD (n = 21)” value is recorded as 1.

Regarding KTISAKTHNSSLEYN [SEQ ID NO: 54], in the test with maternal autoantibodies, the “binding … compared with TD samples” value is listed as “only bound by autoantibodies when the microarrays were incubated with plasma samples obtained from mothers whose children had a diagnosis of ASD”; the “Number (%) Positive In ASD” value was determined as 2%; the “Number Positive In ASD (n = 46)” value turned out to be 1; the “Number (%) Positive In TD” value worked out at 0%. For the same substance, the “Number Positive In TD (n = 21)” value in the test with maternal autoantibodies is 0.

Turning to LQTPKIVADKDYSVTAN [SEQ ID NO: 71], in the test with maternal autoantibodies, the “binding … compared with TD samples” value was “only bound by autoantibodies when the microarrays were incubated with plasma samples obtained from mothers whose children had a diagnosis of ASD”; the “Number (%) Positive In ASD” value was 2%; the “Number Positive In ASD (n = 46)” value is recorded as 1; the “Number (%) Positive In TD” value amounted to 0%. Besides, in the test with maternal autoantibodies, the “Number Positive In TD (n = 21)” value is given as 0.

Turning to IAPVAEEEATVPNNKIT [SEQ ID NO: 66], in the test on maternal autoantibodies, the “binding … compared with TD samples” value is given as “only bound by autoantibodies when the microarrays were incubated with plasma samples obtained from mothers whose children had a diagnosis of ASD”; the “Number (%) Positive In ASD” value worked out at 4%; the “Number Positive In ASD (n = 46)” value is 2; the “Number (%) Positive In TD” value is recorded as 0%. Besides, the “Number Positive In TD (n = 21)” value in the test with maternal autoantibodies worked out at 0.

In the case of VVPEPGSSLLTSFEK [SEQ ID NO: 36], in the test with maternal autoantibodies, the “binding … compared with TD samples” value is “only bound by autoantibodies when the microarrays were incubated with plasma samples obtained from mothers whose children had a diagnosis of ASD”; the “Number (%) Positive In ASD” value was 4%; the “Number Positive In ASD (n = 46)” value is recorded as 2; the “Number (%) Positive In TD” value is given as 0%. Also, the “Number Positive In TD (n = 21)” value with maternal autoantibodies is 0.

As for VDITSWYDGVREELE [SEQ ID NO: 38], in the test with maternal autoantibodies, the “Number (%) Positive In ASD” value is 26%, the “Number Positive In ASD (n = 46)” value is 12, the “Number (%) Positive In TD” value came out at 14% and the “Number Positive In TD (n = 21)” value was determined as 3.

As for VLLGVDLGSMDEEEE [SEQ ID NO: 20], in the test on maternal autoantibodies, the “Number (%) Positive In ASD” value was found to be 30%, the “Number Positive In ASD (n = 46)” value is on record as 14, the “Number (%) Positive In TD” value amounted to 19% and the “Number Positive In TD (n = 21)” value amounted to 4.

On to VPRGLYDGPVCEVSV [SEQ ID NO: 60], for which, in the test with maternal autoantibodies, the “Number (%) Positive In ASD” value is reported as 17%, the “Number Positive In ASD (n = 46)” value worked out at 8, the “Number (%) Positive In TD” value is 5% and the “Number Positive In TD (n = 21)” value was determined as 1.

“full-length STIP1 polypeptide: full-length stress-induced phosphoprotein 1 (STIP1) polypeptide used in a comparison ELISA” came in with an absorbance value in test [2] of around 1.0.

With VDVIEDKLKGEMMDL [SEQ ID NO: 3], in the test with maternal autoantibodies, the “Number (%) Positive In ASD” value was found to be 15%, the “Number Positive In ASD (n = 46)” value is 7, the “Number (%) Positive In TD” value is listed as 10% and the “Number Positive In TD (n = 21)” value was determined as 2.

With HNSSLEYNIFEGMEC [SEQ ID NO: 55], in the test on maternal autoantibodies, the “Number (%) Positive In ASD” value came to 35%, the “Number Positive In ASD (n = 46)” value was 16, the “Number (%) Positive In TD” value was found to be 19% and the “Number Positive In TD (n = 21)” value was determined as 4.

In the case of VDLGSMDEEEEIATP [SEQ ID NO: 21], in the test with maternal autoantibodies, the “Number (%) Positive In ASD” value is on record as 13%, the “Number Positive In ASD (n = 46)” value came to 6, the “Number (%) Positive In TD” value worked out at 5% and the “Number Positive In TD (n = 21)” value stood at 1.

In the case of PVAEEEATVPNNKIT [SEQ ID NO: 9], in the test on maternal autoantibodies, the “binding … compared with TD samples” value is given as “only bound by autoantibodies when the microarrays were incubated with plasma samples obtained from mothers whose children had a diagnosis of ASD”; the “Number (%) Positive In ASD” value came to 7%; the “Number Positive In ASD (n = 46)” value was found to be 3; the “Number (%) Positive In TD” value is 0%. In the test with maternal autoantibodies, the “Number Positive In TD (n = 21)” value worked out at 0.
